Results taken from patent US11813239B2, “Compositions and methods for improving cardiac structure and/or function” (Wisconsin Alumni Research Foundation, priority 2020, dated 2023).
Entries after “also recorded” stand apart in the source; their conditions may differ.

How the values were obtained:
[1] = tested on: adult cardiomyocytes; assay: Histology after adult MI (TTC, TUNEL, pH3, Aurora B, BrdU, nucleation, γH2AX, trichrome, WGA, coronary casting, PECAM/α-SMA); format: in vivo, mouse; details: malonate, 28 days post-MI, vs controls
[2] = tested on: adult mouse heart following myocardial infarction; assay: Trichrome staining after adult MI, malonate treatment starting 1-week post-MI; details: malonate for 4 weeks starting 1-week post-MI, 6 weeks post-MI
Text: Adult male mice (8-week-old) were subjected to MI by ligation of the proximal aspect of the LAD coronary artery. In brief, mice were anaesthetized using 3% isoflurane, then mice were intubated with PE50 tubing and placed on a mouse ventilator at 120-130 breaths per minute with a stroke volume of 150 microliters and maintained on 2% isoflurane. A left lateral incision through the fourth intercostal space was made to expose the heart. After visualizing the left coronary artery, 7-0 suture was placed through the myocardium in the anterolateral wall and secured as previously describer^17,18. Coronary artery entrapment was confirmed by observing blanching of the distal circulation (ventricular apex). ECG was used to confirm MI by noting ST segment changes. The lungs were over inflated, and the ribs and muscle layers were closed by absorbable sutures. The skin is closed by additional suturing using 6-0 nylon. The mouse was recovered from the anesthesia and extubated.
Saline was used as a vehicle control for all experiments. […]
Hearts were harvested and fixed in 4% paraformaldehyde (PFA) in PBS solution overnight at 4° C., processed for paraffin embedding, and sectioned in intervals. […] Scar size measurements were quantified from at least 3 sections of the heart from ligature to apex. ImageJ was used to quantify the fibrotic scar, and the average scar area for each heart was plotted. […]

[3] = tested on: adult mouse heart following myocardial infarction; assay: Echocardiography after adult myocardial infarction, malonate from within an hour post-MI for two weeks; format: in vivo; details: for % EF (Ejection Fraction) / % FS (Fractional Shortening) / LV Mass (Left Ventricular Mass, Anatomical Weight) / LV Vol; d (Left Ventricular Volume; diastole) / LV Vol; s (Left Ventricular Volume; systole) / LVAWD (Left Ventricle Anterior Wall Thickness Diastole) / LVAWS (Left Ventricle Anterior Wall Thickness Systole) / LVIDD (Left Ventricle Internal Diameter Diastole) / LVIDS (Left Ventricle Internal Diameter Systole) / LVPWD (Left Ventricle Posterior Wall Thickness Diastole) / LVPWS (Left Ventricle Posterior Wall Thickness Systole): adult mice, mean ± SE
[4] = tested on: postnatal (P7) mouse heart following myocardial infarction; assay: Echocardiography after myocardial infarction in P7 juvenile mice; details: for % EF (Ejection Fraction) / % FS (Fractional Shortening) / LV Mass (Left Ventricular Mass, Anatomical Weight) / LV Vol; d (Left Ventricular Volume; diastole) / LV Vol; s (Left Ventricular Volume; systole) / LVAWD (Left Ventricle Anterior Wall Thickness Diastole) / LVAWS (Left Ventricle Anterior Wall Thickness Systole) / LVIDD (Left Ventricle Internal Diameter Diastole) / LVIDS (Left Ventricle Internal Diameter Systole) / LVPWD (Left Ventricle Posterior Wall Thickness Diastole) / LVPWS (Left Ventricle Posterior Wall Thickness Systole): dimethyl malonate 100 mg/kg daily for 2 weeks from birth, mean ± SE
Experimental: Neonatal mice at postnatal day 1 (P1) or day 7 (P7) were used for myocardial infarction (MI) surgery. Neonatal mice were subjected to MI surgeries as previously described. Briefly, neonates were anesthetized by hypothermia on ice. Lateral thoracotomy at the fourth intercostal space was performed by blunt dissection of the intercostal muscles after skin incision. A C-1 tapered needle attached to a 6-0 prolene suture (Ethicon Inc., Bridgewater, N.J.) was passed through the mid-ventricle below the left anterior descending coronary artery (LAD) and tied off to induce MI. The prolene suture was used to suture the ribs together and seal the chest wall incisions, and the skin was closed using adhesive glue (3M). The mice then were warmed on a heating pad until recovery. Sham-operated mice underwent the same procedure including hypothermic anesthesia, but not LAD ligation.
Neonatal mice were weighed and injected daily with either saline, 100 mg/kg dimethyl succinate (Sigma), 100 mg/kg dimethyl malonate (Sigma), or 100 μg/kg Atpenin A5 (Enzo Life Sciences). Dimethyl succinate and dimethyl malonate were dissolved in saline. Stock solution of Atpenin A5 at 0.1 mg/ml was initially prepared by dissolving in DMSO (Sigma) and then further diluted with saline before injection. Saline was used as a vehicle control for all experiments.
Transthoracic echocardiography was performed by using a Visual Sonics 770 ultrasonograph with a 25-MHz transducer (Visual Sonics, Toronto) as described previously^19. Mice were lightly anesthetized with 1% isoflurane and maintained on a heated platform. Two-dimensionally guided M-mode images from a parasternal long axis (PLAX) of the left ventricle (LV) were acquired at the tip of the papillary muscles. Wall thickness and chamber diameters were measured in both diastole and systole. Fractional shortening was calculated as (LVDd−LVDs)/LVDd×100, where LVDd is LV diameter in diastole and LVDs is LV diameter in systole. Ejection fraction was calculated as [(7.0/(2.4+LVDd)(LVDd)^3−(7.0/(2.4+LVDs)(LVDs)^3/(7.0/(2.4+LVDd)(LVDd)^3×100 and LV mass was calculated by using the formula [1.05×((Posterior Walldiastole+Anterior Walldiastole+LVDd)^3−(LVDd)^3)]. All parameters were measured over at least three consecutive cycles.
We injected dimethyl malonate (100 mg/kg, daily) in neonatal mice directly after birth for 2 weeks with an MI performed once the mice reached P7. We then analyzed the hearts following injury to determine whether malonate results in prolongation of the neonatal regenerative window (FIG. 10A).

[5] = Baseline before surgery and dosing (same values as saline Table 4A)
[6] = MI, 14 DPMI, dimethyl malonate 100 mg/kg intraperitoneally daily for 2 weeks post-MI
[7] = MI, 28 DPMI, dimethyl malonate 100 mg/kg intraperitoneally daily for 2 weeks post-MI
[8] = sham (SH), 14 DPMI, dimethyl malonate 100 mg/kg intraperitoneally daily for 2 weeks
[9] = sham (SH), 28 DPMI, dimethyl malonate 100 mg/kg intraperitoneally daily for 2 weeks
[10] = MI at P7 (n = 6), echo 21 days post-MI (P7D21)
[11] = sham at P7 (SH, n = 6), echo at day 21 (P7D21)

COC(=O)CC(=O)OC [Malonate, dimethyl malonate]
vascular density in the infarct zone (MICROFIL casting, ImageJ region of interest) [1]: significant increase in vascular density in the infarct zone
scar size (fibrosis quantification) [2]: significant reduction in scar size
cardiac function by echocardiography (EF and FS) ([3]; adult MI, dimethyl malonate 100 mg/kg daily for 2 weeks, 28 days post-MI, vs saline): complete restoration of cardiac function; also recorded: significant improvement of cardiac function
cardiac function by echocardiography ([3]; adult MI, dimethyl malonate 100 mg/kg daily, 14 days post-MI, vs controls, difference was not significant): trending improvement in cardiac function
% EF (Ejection Fraction) [3, 5]: 57.761 ± 0.698%
% FS (Fractional Shortening) [3, 5]: 29.844 ± 0.434%
LV Mass (Left Ventricular Mass, Anatomical Weight) [3, 5]: 78.043 ± 3.706 mg
LV Vol; d (Left Ventricular Volume; diastole) [3, 5]: 59.761 ± 3.319 µL
LV Vol; s (Left Ventricular Volume; systole) [3, 5]: 25.363 ± 1.705 µL
LVAWD (Left Ventricle Anterior Wall Thickness Diastole) [3, 5]: 0.641 ± 0.006 mm
LVAWS (Left Ventricle Anterior Wall Thickness Systole) [3, 5]: 0.767 ± 0.005 mm
LVIDD (Left Ventricle Internal Diameter Diastole) [3, 5]: 3.731 ± 0.086 mm
LVIDS (Left Ventricle Internal Diameter Systole) [3, 5]: 2.619 ± 0.072 mm
LVPWD (Left Ventricle Posterior Wall Thickness Diastole) [3, 5]: 0.639 ± 0.006 mm
LVPWS (Left Ventricle Posterior Wall Thickness Systole) [3, 5]: 0.769 ± 0.005 mm
% EF (Ejection Fraction) [3, 6]: 44.421 ± 5.272%
% FS (Fractional Shortening) [3, 6]: 22.034 ± 2.951%
LV Mass (Left Ventricular Mass, Anatomical Weight) [3, 6]: 80.024 ± 8.731 mg
LV Vol; d (Left Ventricular Volume; diastole) [3, 6]: 74.738 ± 12.392 µL
LV Vol; s (Left Ventricular Volume; systole) [3, 6]: 44.249 ± 11.125 µL
LVAWD (Left Ventricle Anterior Wall Thickness Diastole) [3, 6]: 0.583 ± 0.015 mm
LVAWS (Left Ventricle Anterior Wall Thickness Systole) [3, 6]: 0.723 ± 0.020 mm
LVIDD (Left Ventricle Internal Diameter Diastole) [3, 6]: 4.047 ± 0.283 mm
LVIDS (Left Ventricle Internal Diameter Systole) [3, 6]: 3.188 ± 0.334 mm
LVPWD (Left Ventricle Posterior Wall Thickness Diastole) [3, 6]: 0.578 ± 0.014 mm
LVPWS (Left Ventricle Posterior Wall Thickness Systole) [3, 6]: 0.753 ± 0.016 mm
% EF (Ejection Fraction) [3, 7]: 48.940 ± 5.707%
% FS (Fractional Shortening) [3, 7]: 24.858 ± 3.214%
LV Mass (Left Ventricular Mass, Anatomical Weight) [3, 7]: 83.201 ± 16.390 mg
LV Vol; d (Left Ventricular Volume; diastole) [3, 7]: 84.656 ± 22.884 µL
LV Vol; s (Left Ventricular Volume; systole) [3, 7]: 47.375 ± 16.164 µL
LVAWD (Left Ventricle Anterior Wall Thickness Diastole) [3, 7]: 0.528 ± 0.033 mm
LVAWS (Left Ventricle Anterior Wall Thickness Systole) [3, 7]: 0.693 ± 0.042 mm
LVIDD (Left Ventricle Internal Diameter Diastole) [3, 7]: 4.183 ± 0.448 mm
LVIDS (Left Ventricle Internal Diameter Systole) [3, 7]: 3.193 ± 0.451 mm
LVPWD (Left Ventricle Posterior Wall Thickness Diastole) [3, 7]: 0.600 ± 0.020 mm
LVPWS (Left Ventricle Posterior Wall Thickness Systole) [3, 7]: 0.755 ± 0.017 mm
% EF (Ejection Fraction) [3, 8]: 52.458 ± 2.795%
% FS (Fractional Shortening) [3, 8]: 26.613 ± 1.724%
LV Mass (Left Ventricular Mass, Anatomical Weight) [3, 8]: 78.241 ± 13.192 mg
LV Vol; d (Left Ventricular Volume; diastole) [3, 8]: 71.304 ± 10.106 µL
LV Vol; s (Left Ventricular Volume; systole) [3, 8]: 33.993 ± 5.072 µL
LVAWD (Left Ventricle Anterior Wall Thickness Diastole) [3, 8]: 0.575 ± 0.045 mm
LVAWS (Left Ventricle Anterior Wall Thickness Systole) [3, 8]: 0.723 ± 0.047 mm
LVIDD (Left Ventricle Internal Diameter Diastole) [3, 8]: 4.005 ± 0.234 mm
LVIDS (Left Ventricle Internal Diameter Systole) [3, 8]: 2.940 ± 0.188 mm
LVPWD (Left Ventricle Posterior Wall Thickness Diastole) [3, 8]: 0.575 ± 0.035 mm
LVPWS (Left Ventricle Posterior Wall Thickness Systole) [3, 8]: 0.733 ± 0.046 mm
% EF (Ejection Fraction) [3, 9]: 48.208 ± 3.686%
% FS (Fractional Shortening) [3, 9]: 24.032 ± 2.173%
LV Mass (Left Ventricular Mass, Anatomical Weight) [3, 9]: 82.315 ± 5.106 mg
LV Vol; d (Left Ventricular Volume; diastole) [3, 9]: 68.006 ± 5.647 µL
LV Vol; s (Left Ventricular Volume; systole) [3, 9]: 35.538 ± 4.993 µL
LVAWD (Left Ventricle Anterior Wall Thickness Diastole) [3, 9]: 0.623 ± 0.014 mm
LVAWS (Left Ventricle Anterior Wall Thickness Systole) [3, 9]: 0.755 ± 0.010 mm
LVIDD (Left Ventricle Internal Diameter Diastole) [3, 9]: 3.940 ± 0.137 mm
LVIDS (Left Ventricle Internal Diameter Systole) [3, 9]: 2.998 ± 0.170 mm
LVPWD (Left Ventricle Posterior Wall Thickness Diastole) [3, 9]: 0.618 ± 0.013 mm
LVPWS (Left Ventricle Posterior Wall Thickness Systole) [3, 9]: 0.753 ± 0.013 mm
% EF (Ejection Fraction) [4, 10]: 69.751 ± 5.496%
% FS (Fractional Shortening) [4, 10]: 38.443 ± 4.043%
LV Mass (Left Ventricular Mass, Anatomical Weight) [4, 10]: 48.029 ± 9.293 mg
LV Vol; d (Left Ventricular Volume; diastole) [4, 10]: 24.289 ± 5.739 µL
LV Vol; s (Left Ventricular Volume; systole) [4, 10]: 8.741 ± 3.350 µL
LVAWD (Left Ventricle Anterior Wall Thickness Diastole) [4, 10]: 0.702 ± 0.029 mm
LVAWS (Left Ventricle Anterior Wall Thickness Systole) [4, 10]: 0.814 ± 0.023 mm
LVIDD (Left Ventricle Internal Diameter Diastole) [4, 10]: 2.490 ± 0.269 mm
LVIDS (Left Ventricle Internal Diameter Systole) [4, 10]: 1.578 ± 0.259 mm
LVPWD (Left Ventricle Posterior Wall Thickness Diastole) [4, 10]: 0.684 ± 0.037 mm
LVPWS (Left Ventricle Posterior Wall Thickness Systole) [4, 10]: 0.823 ± 0.022 mm
cardiac function by echocardiography (EF, FS, LVIDD, LVIDS) ([4]; MI at P7, dimethyl malonate 100 mg/kg daily for 2 weeks from birth, 21 days post-MI): restored to normal levels
% EF (Ejection Fraction) [4, 11]: 67.727 ± 3.762%
% FS (Fractional Shortening) [4, 11]: 37.135 ± 2.848%
LV Mass (Left Ventricular Mass, Anatomical Weight) [4, 11]: 62.439 ± 4.833 mg
LV Vol; d (Left Ventricular Volume; diastole) [4, 11]: 43.309 ± 5.883 µL
LV Vol; s (Left Ventricular Volume; systole) [4, 11]: 14.962 ± 3.612 µL
LVAWD (Left Ventricle Anterior Wall Thickness Diastole) [4, 11]: 0.650 ± 0.025 mm
LVAWS (Left Ventricle Anterior Wall Thickness Systole) [4, 11]: 0.820 ± 0.033 mm
LVIDD (Left Ventricle Internal Diameter Diastole) [4, 11]: 3.240 ± 0.185 mm
LVIDS (Left Ventricle Internal Diameter Systole) [4, 11]: 2.058 ± 0.204 mm
LVPWD (Left Ventricle Posterior Wall Thickness Diastole) [4, 11]: 0.643 ± 0.026 mm
LVPWS (Left Ventricle Posterior Wall Thickness Systole) [4, 11]: 0.818 ± 0.032 mm
